In patent US20250098679A1, “HERBICIDAL PYRIDONE DERIVATIVES” (SYNGENTA CROP PROTECTION AG, priority 2021, published 2025):

What was measured:
Format in all cases: in vivo
Conditions in all cases: evaluated after 13 days
[1] = test system: Setaria faberi (SETFA); experiment: Post-emergence Test, Setaria faberi (SETFA); set-up: key to percentage damage caused to the plant, SETFA (five-point scale): 5=81-100%, 4=61-80%, 3=41-60%, 2=21-40%, 1=0-20% damage
How it was run: (§1)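 Tested at 1000 g/ha unless otherwise stated. Plants were held at 24/16 °C day/night with a 14 h light period. Percent damage was read at 13 days and reported in five bands.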

[2] = test system: Echinochloa crus-galli (ECHCG); experiment: Post-emergence Test, Echinochloa crus-galli (ECHCG); set-up: key to percentage damage caused to the plant, ECHCG (five-point scale): 5=81-100%, 4=61-80%, 3=41-60%, 2=21-40%, 1=0-20% damage
How it was run: as §1

[3] = test system: Zea mays (ZEAMX); experiment: Post-emergence Test, Zea mays (ZEAMX); set-up: key to percentage damage caused to the plant, ZEAMX (five-point scale): 5=81-100%, 4=61-80%, 3=41-60%, 2=21-40%, 1=0-20% damage
How it was run: as §1

[4] = test system: Ipomoea hederacea (IPOHE); experiment: Post-emergence Test, Ipomoea hederacea (IPOHE); set-up: key to percentage damage caused to the plant, IPOHE (five-point scale): 5=81-100%, 4=61-80%, 3=41-60%, 2=21-40%, 1=0-20% damage
How it was run: as §1

[5] = test system: Amaranthus palmeri (AMAPA); experiment: Post-emergence Test, Amaranthus palmeri (AMAPA); set-up: key: 5=81-100%, 4=61-80%, 3=41-60%, 2=21-40%, 1=0-20% damage
How it was run: as §1

[6] = test system: Amaranthus retoflexus (AMARE); experiment: Post-emergence Test, Amaranthus retoflexus (AMARE); set-up: key to percentage damage caused to the plant, AMARE (five-point scale): 5=81-100%, 4=61-80%, 3=41-60%, 2=21-40%, 1=0-20% damage
How it was run: as §1

Compound | percentage damage caused to the plant, SETFA (five-point scale) ([1]; 250 g/Ha) | percentage damage caused to the plant, ECHCG (five-point scale) ([2]; 250 g/Ha) | percentage damage caused to the plant, ZEAMX (five-point scale) ([3]; 250 g/Ha) | percentage damage caused to the plant, IPOHE (five-point scale) ([4]; 250 g/Ha) | percentage damage caused to the plant, AMAPA (five-point scale) ([5]; 250 g/Ha) | percentage damage caused to the plant, AMARE (five-point scale) ([6]; 250 g/Ha) | percentage damage caused to the plant, SETFA (five-point scale) ([1]; 1000 g/ha) | percentage damage caused to the plant, ECHCG (five-point scale) ([2]; 1000 g/ha) | percentage damage caused to the plant, ZEAMX (five-point scale) ([3]; 1000 g/ha) | percentage damage caused to the plant, IPOHE (five-point scale) ([4]; 1000 g/ha) | percentage damage caused to the plant, AMAPA (five-point scale) ([5]; 1000 g/ha) | percentage damage caused to the plant, AMARE (five-point scale) ([6]; 1000 g/ha) | also measured
CCn1c(Cn2ccc(-c3ccc(Cl)cc3)n2)cc(=O)c(C(=O)O)c1-c1ccc(Cl)c(Cl)c1 [Compound 199, 6-[[3-(4-chlorophenyl)pyrazol-1-yl]methyl]-2-(3,4-dichlorophenyl)-1-ethyl-4-oxo-pyridine-3-carboxylic acid] | – | – | – | – | – | – | – | – | – | – | – | – | Post-emergence Test SETFA, percentage damage caused to the plant (five-point scale) ([1]; 1000 g/ha): 0; Post-emergence Test ECHCG, percentage damage caused to the plant (five-point scale) ([2]; 250 g/Ha (*)): 1 (1=0-20%); Post-emergence Test ZEAMX, percentage damage caused to the plant (five-point scale) ([3]; 250 g/Ha (*)): 0; Post-emergence Test ZEAMX, percentage damage caused to the plant (five-point scale) ([3]; 1000 g/ha): 0; Post-emergence Test IPOHE, percentage damage caused to the plant (five-point scale) ([4]; 250 g/Ha (*)): 0; Post-emergence Test IPOHE, percentage damage caused to the plant (five-point scale) ([4]; 1000 g/ha): 2 (2=21-40%); Post-emergence Test AMAPA, percentage damage caused to the plant (five-point scale) ([5]; 250 g/Ha (*)): 0; Post-emergence Test AMAPA, percentage damage caused to the plant (five-point scale) ([5]; 1000 g/ha): 0; Post-emergence Test AMARE, percentage damage caused to the plant (five-point scale) ([6]; 250 g/Ha (*)): 0; Post-emergence Test AMARE, percentage damage caused to the plant (five-point scale) ([6]; 1000 g/ha): 0
CCOC(=O)c1c(-c2ccc(Cl)c(Cl)c2)n(CC)c(Cn2nccc2Cl)cc1=O [Compound 67, ethyl 6-[(5-chloropyrazolo-1-yl)methyl]-2-(3,4-dichlorophenyl)-1-ethyl-4-oxo-pyridine-3-carboxylate] | 0 | 0 | 0 | 0 | 1 (1=0-20%) | 1 (1=0-20%) | – | – | – | – | – | – | –
CCn1c(Cn2nc(C(F)F)c3c2CCOC3)cc(=O)c(C(=O)O)c1-c1ccc(Cl)c(Cl)c1 [Compound 87, 2-(3,4-dichlorophenyl)-6-[[3-(difluoromethyl)-6,7-dihydro-4H-pyrano[4,3-c]pyrazol-1-yl]methyl]-1-ethyl-4-oxo-pyridine-3-carboxylic acid] | 0 | 1 (1=0-20%) | 1 (1=0-20%) | 0 | 0 | 0 | 1 (1=0-20%) | 1 (1=0-20%) | 1 (1=0-20%) | 1 (1=0-20%) | 2 (2=21-40%) | 1 (1=0-20%) | –
CCn1c(Cn2nc(C(C)(C)C)cc2C(F)(F)F)cc(=O)c(C(=O)O)c1-c1ccc(Cl)c(Cl)c1 [Compound 181, 6-[[3-tert-butyl-5-(trifluoromethyl)pyrazol-1-yl]methyl]-2-(3,4-dichlorophenyl)-1-ethyl-4-oxo-pyridine-3-carboxylic acid] | – | 1 (1=0-20%) | 0 | 0 | 0 | 0 | 0 | – | 0 | 1 (1=0-20%) | 1 (1=0-20%) | 1 (1=0-20%) | –
CCC(=O)Nc1ccn(Cc2cc(=O)c(C(=O)O)c(-c3ccc(Cl)c(Cl)c3)n2CC)n1 [Compound 192, 2-(3,4-dichlorophenyl)-1-ethyl-4-oxo-6-[[3-(propanoylamino)pyrazol-1-yl]methyl]pyridine-3-carboxylic acid] | – | – | – | – | – | – | 0 | 0 | 0 | 0 | 1 (1=0-20%) | 1 (1=0-20%) | –
CCn1c(Cn2cnc(Cl)c2)cc(=O)c(C(=O)O)c1-c1ccc(Cl)c(Cl)c1 [Compound 74, 6-[(4-chloroimidazol-1-yl)methyl]-2-(3,4-dichlorophenyl)-1-ethyl-4-oxo-pyridine-3-carboxylic acid] | – | – | – | – | – | – | 0 | 0 | 1 (1=0-20%) | 0 | 0 | 0 | –
CCn1c(Cn2ccc(C(F)(F)F)n2)cc(=O)c(C(=O)O)c1-c1ccc(Cl)c(S(C)(=O)=O)c1 [Compound 116, 2-(4-chloro-3-methylsulfonyl-phenyl)-1-ethyl-4-oxo-6-[[3-(trifluoromethyl)pyrazol-1-yl]methyl]pyridine-3-carboxylic acid] | – | – | – | – | – | – | 1 (1=0-20%) | 1 (1=0-20%) | 1 (1=0-20%) | 1 (1=0-20%) | 1 (1=0-20%) | 1 (1=0-20%) | –
CCn1c(Cn2cnc(C#N)c2C#N)cc(=O)c(C(=O)O)c1-c1ccc(Cl)c(Cl)c1 [Compound 113, 2-(3,4-dichlorophenyl)-6-[(4,5-dicyanoimidazol-1-yl)methyl]-1-ethyl-4-oxo-pyridine-3-carboxylic acid] | – | – | – | – | – | – | 1 (1=0-20%) | 1 (1=0-20%) | 1 (1=0-20%) | 0 | 1 (1=0-20%) | 1 (1=0-20%) | –
CCn1c(Cn2cnc(C(F)(F)F)c2)cc(=O)c(C(=O)O)c1-c1ccc(Cl)c(Cl)c1 [Compound 10, 2-(3,4-dichlorophenyl)-1-ethyl-4-oxo-6-[[4-(trifluoromethyl)imidazol-1-yl]methyl]pyridine-3-carboxylic acid] | – | – | – | – | – | – | 0 | 0 | 1 (1=0-20%) | 1 (1=0-20%) | 0 | 0 | –
CCOC(=O)c1c(-c2ccc(Cl)c(Cl)c2)n(CC)c(Cn2cnc(Cl)c2Cl)cc1=O [Compound 68, ethyl 6-[(4,5-dichloroimidazol-1-yl)methyl]-2-(3,4-dichlorophenyl)-1-ethyl-4-oxo-pyridine-3-carboxylate] | 1 (1=0-20%) | 0 | 1 (1=0-20%) | 1 (1=0-20%) | 1 (1=0-20%) | 1 (1=0-20%) | 1 (1=0-20%) | 1 (1=0-20%) | 0 | 1 (1=0-20%) | 1 (1=0-20%) | 1 (1=0-20%) | –
